Measured values: patent publication US20100215696A1, “E[…] C VIRUS MUTANT, A HEPTITIS C VIRUS MUTANT […] GENE, A METHOD OF PREPARING OF HCV VACCINE USING THE SAME AND A METHOD OF SCREENING ANTI HCV COMPOSITION USING THE SAME” (priority 2007, published 2010)

Test system: JFH 5a-GFP
Test: Real time assessment of anti-viral activity in individual JFH 5a-GFP infected Huh 7.5.1 cells (time-lapse confocal GFP fluorescence)
Assay type: cell-based, hepatitis C virus
Conditions: 1000 IU/ml IFN-α, monitored every 12 hours up to 60 hours, FIGS. 13-16
Description: Huh 7.5.1 cells were infected with culture supernatant obtained from the transformant transfected with JFH 5a-GFP RNA (the transformant was transformed with the introduction of JFH 5a-GFP RNA via electroporation into Huh 7.5.1 cells, in Example 2-1).
After treating or mock-treating (i.e., no IFN-α treated) the transformant with IFN-α, GFP fluorescence was monitored every 12 hours up to 60 hours by using time-lapse confocal microscopy (Zeiss LSM 5 Live). For time-lapse imaging, coverslips were mounted onto the microscope stage, which was equipped with a temperature- and gas-controlled chamber (Chamide IC, Live Cell Instrument, Korea).
In addition, quantitative analyses of the fluorescence images of 8 cells were made by using MetaMorph software. The grouping of the figures was made depending on whether the cell was treated with IFN-α.
FIGS. 10 and 14 are graphs showing changing fluorescence levels in 8 transformants, in absolute values. FIGS. 11 and 15 are graphs showing changing fluorescence levels over time in 8 transformants, in relative values against the starting value, i.e., the value given to the transformants with no IFN-α treated.

Interferon-alpha [IFN-α]
5a-GFP fluorescence intensities over time in 8 transformants: seven among eight transformants showed decreasing fluorescence intensities over time
